The values below come from PMC11816722, “GATA3-Driven ceRNA Network in Lung Adenocarcinoma Bone Metastasis Progression and Therapeutic Implications” (Cancers, 2025).

Usually Kd stands for a measure of binding affinity in units of concentration.

This experiment addresses T1, NPRL3 (Homo sapiens, UniProt Q12980).
T1 sequence (Q12980 1-569): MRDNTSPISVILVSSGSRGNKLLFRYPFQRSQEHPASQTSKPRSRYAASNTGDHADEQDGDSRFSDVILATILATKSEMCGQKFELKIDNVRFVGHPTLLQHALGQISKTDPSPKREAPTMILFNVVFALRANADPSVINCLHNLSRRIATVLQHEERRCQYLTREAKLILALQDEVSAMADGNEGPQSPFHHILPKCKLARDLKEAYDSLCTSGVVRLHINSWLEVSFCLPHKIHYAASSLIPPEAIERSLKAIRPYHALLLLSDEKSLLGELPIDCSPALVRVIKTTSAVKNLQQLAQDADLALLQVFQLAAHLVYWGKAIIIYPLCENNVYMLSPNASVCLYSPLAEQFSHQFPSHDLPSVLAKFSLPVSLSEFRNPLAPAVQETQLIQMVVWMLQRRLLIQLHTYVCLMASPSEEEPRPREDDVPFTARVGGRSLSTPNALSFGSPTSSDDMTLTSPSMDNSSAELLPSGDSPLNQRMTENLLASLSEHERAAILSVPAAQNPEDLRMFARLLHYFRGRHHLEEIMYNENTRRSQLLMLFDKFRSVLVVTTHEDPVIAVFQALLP
As to the kind of experiment: SPR (Biacore T200, immobilized recombinant NPRL3, steady-state […] fit); supported by DARTS in A549L6 lysate. It is filed as binding.

Each structure is given as a SMILES string.

`O=c1[nH]nc2c3c(cccc13)N=C(CN1Cc3ccccc3C1)N2` [E7449]: the Kd is 11.8 µM.
